Earlier results as cited in patent US20040024041A1, “Dermal therapeutic system containing non-steroidal antiphlogistics with selective cox-2 inhibition” (priority 2000, published 2004).

How the values were obtained:
[1] = patients receiving rofecoxib therapy vs patients receiving other non-steroidal anti-inflammatory drugs as comparison substance

CS(=O)(=O)c1ccc(C2=C(c3ccccc3)C(=O)OC2)cc1 [rofecoxib, 3-phenyl-4-[4-methylsulfonylphenyl]-2-(5H)furanone]
perforations, ulcers and bleeds in the upper gastrointestinal tract [1]: significantly fewer | percentage of patients with endoscopically detectable gastroduodenal ulcers (after 12 weeks of treatment, rofecoxib 25 or 50 mg/day vs placebo): comparable percentage | cumulative incidence of gastroduodenal ulcers (over 12 and 24 weeks, respectively, vs ibuprofen 2 400 mg/day): significantly less
